Laboratory results as given in patent US9239334B2, “Fatty acid C16: 1N7-palmitoleate a lipokine and biomarker for metabolic status” (PRESIDENT AND FELLOWS OF HARVARD COLLEGE, priority 2008, dated 2016).

Experiments:
SCD-1 protein = assay: Immunoblotting of Flag-tagged SCD-1 in hepatocytes; format: cell-based; conditions: CMV promoter construct
Description: FIG. 3F presents data from the immunoblotting of Flag-tagged SCD-1 in hepatocytes treated with control, palmitate and palmitoleate. Anti-tubulin blot was used as loading control. The observations reported herein also raised the possibility that C16:1n7-palmitoleate might be the lipid species responsible, at least in part, for the metabolic activities linked to adipose tissue FABPs. […] Because palmitoleate is nearly ten-times more abundant in the plasma of FABP^−/− mice than is AA (FIG. 2C), it is most likely accounts for the suppression of SCD-1 under physiologically relevant conditions. The effects of palmitoleate on the levels of SCD-1 protein, which is known to have a very short half-life (Heinemann & Ozols, 68 Prostaglandins Leukot. Essent. Fatty Acids 123-33 (2003)), were also examined. […] Maeda et al., 2005.

[1] = tested on: insulin receptor signaling in muscle tissue; assay: Insulin signaling in muscle of lipid-infused mice (immunoblotting); format: in vivo; conditions: fatty acid:palmitoleate infusion 3.3 μl/min
Description: FIGS. 7A-7G show data on the regulation of insulin signaling and glucose metabolism by palmitoleate. FIG. 7A is the basal and insulin-stimulated phosphorylation of insulin receptor (IR), insulin receptor substrate-1 (IRS-1) and -2 (IRS-2) and AKT in liver of mice infused with vehicle (Veh), TG:palmitoleate (C16:1n7) or TG:palmitate (C16). Representative blots are shown and quantifications on the right are averaged results of three mice in each treatment group. […] Representative blots are shown and quantifications on the right are averaged results of three mice in each treatment group.
The left panel presents the insulin-stimulated phosphorylation of insulin receptor and AKT in liver of mice infused with vehicle or palmitoleate. […] Mice were infused with vehicle or palmitoleate at 3.3 μl/min for six hrs, and insulin (1 U/Kg) was injected through the infusing tubing. Three minutes after insulin injection, tissues were collected and immunoblotting analyses were performed.
The present invention also provides for the regulation of insulin action by increased circulating palmitoleate. To study whether palmitoleate regulates systemic metabolic responses, lipid infusions were administered in conscious mice. Lipid infusion has been used widely to investigate the relationship between plasma FFAs and insulin resistance, but almost all studies using this protocol utilized preparations of natural lipid products containing a variety of fatty acids. Kim et al., 114 J. Clin. Invest. 823-27 (2004); Kim et al., 277 J. Biol. Chem. 32915-22 (2002); Yu et al., 277 J. Biol. Chem. 50230-36 (2002). […]
Samples of 200 μl serum were collected using heparin-coated glass tubes and spun at 13,000 g in a microcentrifuge to separate the plasma. […] Tissue protein lysates was separated with SDS-PAGE gels and phosphorylated or total proteins were detected with the following antibodies: phospho AKT Serine 473, AKT, insulin receptor, phospho-tyrosine (Santa Cruz Biotech.); IRS-1 and IRS-2 (Upstate); phospho-GSK and GSK (Cell Signaling Tech.); phospho-insulin receptor from (Calbiocbem). […]

[2] = tested on: MCP1, TNFalpha and IL6 expression in adipocyte fraction; assay: Cytokine expression in adipocyte fraction of epididymal fat pads; format: cell-based, mice; conditions: 500 μM for 2 hrs, compared to palmitate
Experimental: FIGS. 16A and 16B present cytokine expression in adipocyte and stromal vascular fractions treated with fatty acids. Epidydamal fat pads were dissected from WT mice and separated into adioycte and stromal vascular fractions as described in Experimental Procedures. Each fraction was treated with palmitate or palmitoleate at 500 μM for 2 hrs. Gene expression was determined with quantitative real-time PCR.
Obesity is associated with low-grade inflammation and increased inflammatory activities in liver and adipose tissues contribute to the development of systemic insulin resistance. Hotamisligil, 444 Nature 860-67 (2006). The effect of plasma lipids on adipose tissue inflammatory responses was explored using explants of adipose tissue treated with lipids from WT or FABP^−/− mice. […] Because adipose tissue contains multiple cell populations in addition to fat cells, adipose tissue was separated into adipocytes and stromal vascular fractions, and each fraction treated with either palmitate or palmitoleate.

Q: With `CCCCCC/C=C\CCCCCCCC(=O)O` [palmitoleate, C16:1n7-palmitoleate] as the compound, how does the “Flag-tagged SCD-1 protein level” value (SCD-1 protein) read?
A: Its value is “significantly increased SCD-1 protein degradation”.

Q: What about the “muscle insulin signaling (insulin receptor and AKT activation)” value [1] of the same compound?
A: Its value is “enhanced”.

Q: What about the “cytokine expression in adipocyte fractions” value [2] of the same compound?
A: The value was “suppressed”.
